Source: US7034046B2, “NR1H4 nuclear receptor binding compounds” (Phenex Pharmaceuticals AG, priority 2001, dated 2006)
Read-outs that look alike come from different tables or passages of the source.

How the values were obtained:
[1] = biological target: T1, human FXR alpha (NR1H4) (Homo sapiens, UniProt Q96RI1); assay: In vitro screening for FXR binding to coactivator TIF2 (LANCE TR-FRET); format: biochemical
T1 construct: human FXR alpha (NR1H4—(Acc. No:AF384555)) encoding amino acids 187–472; made in house; host or cells: E. coli BL21
T1 sequence (Q96RI1 187-472 isoform Q96RI1-2): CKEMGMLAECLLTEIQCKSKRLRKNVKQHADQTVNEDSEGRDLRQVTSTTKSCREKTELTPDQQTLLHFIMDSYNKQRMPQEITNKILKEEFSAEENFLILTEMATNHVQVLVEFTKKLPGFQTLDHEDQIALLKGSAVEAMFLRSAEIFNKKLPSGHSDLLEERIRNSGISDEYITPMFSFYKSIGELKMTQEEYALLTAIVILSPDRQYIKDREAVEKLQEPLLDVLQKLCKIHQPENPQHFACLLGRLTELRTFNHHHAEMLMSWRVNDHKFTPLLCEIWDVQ
T1 sequence (Q15596 548-878 partner limits assumed): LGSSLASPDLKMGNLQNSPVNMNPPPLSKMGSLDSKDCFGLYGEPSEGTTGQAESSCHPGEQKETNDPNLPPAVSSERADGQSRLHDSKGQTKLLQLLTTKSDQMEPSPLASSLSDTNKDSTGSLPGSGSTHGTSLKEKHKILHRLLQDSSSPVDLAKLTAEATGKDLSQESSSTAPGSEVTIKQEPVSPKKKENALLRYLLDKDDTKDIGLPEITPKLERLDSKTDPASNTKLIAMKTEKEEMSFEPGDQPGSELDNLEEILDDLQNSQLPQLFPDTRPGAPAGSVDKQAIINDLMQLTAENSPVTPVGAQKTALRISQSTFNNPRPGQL
Text: For screening purposes a fragment of the open reading frame of human FXR alpha (NR1H4—(Acc. No:AF384555)) encoding amino acids 187–472 was amplified by standard RT PCR procedures (see FIGS. 2A and 2B; SEQ ID NO. 1 and 2). Starting material was total RNA derived from human liver. The resulting cDNA obtained after reverse transcription was subsequently cloned using the Gateway™ recombination technology (Invitrogen, USA) into the expression plasmid pDest15 (Invitrogen, USA). This construct was used to express a recombinant GST-FXR fusion protein in E.coli (BL21 strain). A pDEST 17 derivative clone harboring an additional sequence encoding amino acids 548–878 of human TIF2 (Acc. No: XM—011633 RefSeq) (see FIGS. 2C and 2D, SEQ ID NO. 3 and 4) was constructed using Gateway™ recombination technology (Invitrogen, USA) in order to obtain a construct which was used to express recombinant His-tagged TIF2 fragment could be expressed in E. coli. For E. coli expression of both constructs, plasmid DNA was transformed into chemically competent E. coli BL21 (Invitrogen, USA) and cells were grown to an OD600 of 0.4–0.7 before expression was induced by addition of 0.5 mM IPTG according instructions of the manufacturer (Invitrogen). After induction for 8 hours at 30° C. cells were harvested by centrifugation for 10 minutes at 5000×g. Fusion proteins were affinity purified using Glutathion sepharose (Pharmacia) or Ni-NTA Agarose (QIAGEN) according to the instructions of the respective manufacturer. Recombinant proteins were dialyzed against 20 mM Tris/HCL pH 7.9; 60 mM KCl; 5 mM MgCl2; 1 mM DTT, 0.2 mM PMSF; and 10% glycerol. The TIF2 fragment was subsequently biotinylated by addition of 40–120 μl of a biotinamidocaproate N-hydroxysuccinimide-ester (Sigma) solution (20 mg/ml in DMSO). Overhead rotating samples were incubated for two hours at room temperature. Unincorporated label was then separated using G25 Gel filtration chromatography (Pharmacia Biotech, Sweden). Protein containing fractions from the column were pooled and tested for activity in the assay as described below.
For screening of compound libraries as provided for by the methods shown below in the examples for substances which influence the FXR/Tif 2 interaction, the Perkin Elmer LANCE technology was applied. This method relies on the binding dependent energy transfer from a donor to an acceptor fluorophore attached to the binding partners of interest. For ease of handling and reduction of background from compound fluorescence LANCE technology makes use of generic fluorophore labels and time resolved detection (for detailed description See Hemmilä I, Blomberg K and Hurskainen P, Time-resolved resonance energy transfer (TR-FRET) principle in LANCE, Abstract of Papers Presented at the 3rd Annual Conference of the Society for Biomolecular Screening, Sep., California (1997)).
For screening, 20–200 ng of biotinylated Tif 2 fragment and 10–200 ng of GST-FXR fragment were combined with 0.5–2 nM LANCE Eu-(W1024) labeled anti-GST antibody (Perkin Elmer) and 0.5–2 μg of Highly fluorescent APC-labeled streptavidin (Perkin Elmer) in the presence of 50 μM of individual compounds to be screened in a total volume of 25 μl of 20 mM Tris/HCl pH 7.9; 60 mM KCl; 5 mM MgCl2; and 160 ng/μl BSA. DMSO content of the samples was kept below 4%. Samples were incubated for a minimum of 60 minutes in the dark at room temperature in FIA-Plates black 384well med. binding (Greiner).
The LANCE signal was detected by a Perkin Elmer VICTOR2V™ Multilabel Counter applying the detection parameters listed in Table 3, below. The results were visualized by plotting the ratio between the emitted light at 665 nm and at 615 nm. For every batch of recombinant proteins amount of proteins and labeling reagents giving the most sensitive detection of hits was determined individually by analysis of dose response curves for chenodeoxycholic acid.

[2] = biological target: T2, FXR (Homo sapiens, UniProt Q96RI1); assay: FXR-mediated transactivation, luciferase reporter in stable HEK293FXR reporter cell line; format: cell-based; conditions: HEK293FXR reporter cells, 16 hours
T2 construct: expressed in transfected cells
T2 sequence (Q96RI1 1-472 isoform Q96RI1-2): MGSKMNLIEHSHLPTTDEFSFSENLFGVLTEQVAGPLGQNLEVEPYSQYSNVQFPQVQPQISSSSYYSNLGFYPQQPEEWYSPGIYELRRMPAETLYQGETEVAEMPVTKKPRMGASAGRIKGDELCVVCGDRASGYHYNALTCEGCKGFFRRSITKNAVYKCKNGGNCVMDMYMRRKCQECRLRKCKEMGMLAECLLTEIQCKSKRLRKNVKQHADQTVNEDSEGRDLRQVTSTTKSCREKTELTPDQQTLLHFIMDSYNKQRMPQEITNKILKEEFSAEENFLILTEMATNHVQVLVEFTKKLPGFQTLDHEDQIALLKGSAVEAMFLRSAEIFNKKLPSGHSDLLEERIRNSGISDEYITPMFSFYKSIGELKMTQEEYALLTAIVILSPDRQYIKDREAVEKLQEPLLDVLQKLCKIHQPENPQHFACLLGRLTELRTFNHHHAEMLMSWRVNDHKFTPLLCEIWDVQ
Text: A compound according to the invention (experiments shown were done with MOLSTRUCTURE LN 0000006734; see Table 1 for structural formula) can mediate transactivation of FXR-mediated transcription in a HEK293 reporter cell line. […] The full length human FXR (accession U68233) and the full length human RXRα (accession P19793) were cloned into the […]30 applying the manufacturer protocols for the GatewayTM system (Invitrogen). The FXR response elements were cloned (upper case). [NT] ID NO. 5) was obtained from the human IBAB-P promoter (Grober et al 1999, JBC 274, pp. 29749-29754). A stable clone was selected and seeded at a density of 5×10^4 cells per well in 48 well plates. […] Variations of duplicate measurements are within 20%.

[3] = average of multiple experiments, read-out: EC50 AVG

Compound | EC50 [1, 3] | EFFIC AVG (average efficacy, % activity relative to CDCA control agonist) [1] | agonist of the NR1H4 human nuclear receptor [1] | also measured
CC(C)c1onc(-c2c(Cl)cccc2Cl)c1COc1ccc2cc(C(=O)O)ccc2c1 [LN0000000169] | 2600 nM | 134% | – | Luciferase reporter activity ([2]; 0.08 μM): 1630.0; Luciferase reporter activity ([2]; 0.4 μM): 2754.0; Luciferase reporter activity ([2]; 1 μM): 4600.0; Luciferase reporter activity ([2]; 2 μM): 5775.7; Luciferase reporter activity ([2]; 10 μM): 6829.3; Luciferase reporter activity ([2]; 50 μM): 13375.7
CC(C)c1onc(-c2c(Cl)cccc2Cl)c1COc1ccc(Oc2ccc(C(=O)O)cc2)cc1 [LN0000006734] | 600 nM | 85% | – | Luciferase reporter activity ([2]; 0.08 μM): 2153.0; Luciferase reporter activity ([2]; 0.4 μM): 2991.5; Luciferase reporter activity ([2]; 1 μM): 5360.5; Luciferase reporter activity ([2]; 2 μM): 6330.5; Luciferase reporter activity ([2]; 10 μM): 8523.5; Luciferase reporter activity ([2]; 50 μM): 13309.5; EC50 ([2]; read-out: EC50 of dose-dependent transactivation of the reporter gene luciferase by FXR): ~1000 nM
CC(C)c1onc(-c2c(Cl)cccc2Cl)c1COc1ccc(OCC(=O)O)cc1 [LN0000006767] | 230 nM | 117% | – | –
CC(C)c1onc(-c2c(Cl)cccc2Cl)c1COc1ccc(/C=C/C(=O)O)c(Cl)c1 [LN0000006772] | 50 nM | 100% | – | –
CC(C)c1onc(-c2c(Cl)cccc2Cl)c1COc1ccc(OCC(=O)O)cc1 [formula (II)] | – | – | – | EC50 ([1]; read-out: EC50 at FXR (half-maximal effective concentration)): 230 nM
CC(C)c1onc(-c2c(Cl)cccc2Cl)c1COc1ccc(Oc2ccc(C(=O)O)cc2)cc1 [formula III] | – | – | active as agonist | –
CC(C)c1onc(-c2c(Cl)cccc2Cl)c1COc1ccc(/C=C/C(=O)O)c(Cl)c1 [formula V] | – | – | active as agonist | –

The next lines start with results.

EC50 [1, 3] | EFFIC AVG (average efficacy, % activity relative to CDCA control agonist) [1] | agonist of the NR1H4 human nuclear receptor [1] | Compound | also measured
720 nM | 108% | – | COC(=O)CCc1ccc(OCc2c(-c3c(Cl)cccc3Cl)noc2C(C)C)cc1 [LN0000006764] | –
430 nM | 115% | – | CC(C)c1onc(-c2c(Cl)cccc2Cl)c1COc1ccc(CCC(=O)O)cc1 [LN0000006765] | –
– | – | active as agonist | CC(C)c1onc(-c2c(Cl)cccc2Cl)c1COc1ccc(CCC(=O)O)cc1 [formula IV] | –
